Consider 2 compounds from US5843941A, “Ras farnesyl transferase inhibitors” (Genentech, Inc., priority 1994, dated 1998).

The subject of experiment [1] is nuclear lamins A and B in Met18b-2 cells. As to the kind of experiment: [3H]mevalonate labeling of farnesylated nuclear lamins in Met18b-2 cells. The experiment is classed as cell-based, Chinese hamster. The following applies: 250 μM; FIG. 3. An excerpt:
To study farnesylation in intact cells we used Met18b-2 cells, a line of Chinese hamster ovary (CHO) cells that takes up [3H]mevalonate efficiently (see Faust, J., and Krieger, M. J. Biol. Chem. 262, 1966 (1987)) owing to the production of a mevalonate transport protein (see Kim, C. M., Goldstein, J. L., Brown, M. S. J. Biol. Chem. 267, 23113 (1992)). The [3H]mevalonate is converted by the cells into [3H]farnesyl pyrophosphate and [3H]geranylgeranyl pyrophosphate, which are then attached to proteins (Kim, C. M., Goldstein, J. L., Brown, M. S. J. Biol. Chem. 267, 23113 (1992)). In the assay, stock cultures of Met18b-2 cells were seeded at a density of 3-105 cells per 60 mm dish in 3 ml of medium A (Dulbecco's modified Eagle medium/Ham's F12 medium (1:1, v/v) containing 100 U/ml penicillin and 100 μg/ml streptomycin) supplemented with 5% (v/v) fetal calf serum (FCS). On day 3, each monolayer was refed with 1 ml medium A supplemented with 1% FCS (dialyzed against 0.15 M NaCl). At this point the cells were treated with 100 μM compactin (see Brown, M. S., Faust, J. R., Goldstein, J. L., Kaneko, I., and Endo, A. J. Biol. Chem. 253, 1121 (1978)) which blocks the synthesis of unlabeled mevalonate within the cells. […] Protein concentrations were determined using the BCA protein assay reagent (Pierce) according to the manufacturer's instructions. […]

The test system of experiment [2] is HCT-116 cells. Briefly: Growth inhibition of human tumor line HCT-116. The experiment is classed as cell-based. Conditions: HCT-116, colon, ras transformed, read-out: % growth inhib. On the procedure:
(§1) To examine the effects of farnesyltransferase inhibition on cell growth, three cell lines (ras-transformed rat-1, src-transformed rat-1, and parental rat-1 cells) were seeded (see FIG. 7) at low density and allowed to grow for 10 days in the absence or presence of increasing concentrations of BZA-5B (compound 37). See Example 128 for description of cells. On day 0, cells were plated in monolayer culture at 2×10^3 cells per well (24-well plates) in 1 ml DMEM supplemented with 10% fetal calf serum, 100 U/ml penicillin, 100 μg/ml streptomycin, 0.5 mM DTT, 0.025% DMSO, and the indicated concentration of BZA-5B (compound 37). On days 3 and 7, cells were washed and refed with the same medium. At the time indicated in FIG. 7, cells were harvested by trypsinization and counted in a Coulter counter. Panels A, C, E show the growth rate of each cell line in the absence of inhibitor. Panels B, D, F show the inhibition of growth as a function of concentration of BZA-5B at each time point. […]
(§2) To examine the effects of farnesyltransferase inhibition on the growth of human tumor cell lines, several such lines were treated with 25 μM BZA-5B (compound 37B) using a procedure similar to that described in Example 129 above. Cells were refed with fresh media at days 3 and 6 containing the inhibitor, and were harvested and counted as described above. […]

Experiment [3] deals with Ras proteins in Met18b-2 cells. Briefly: Incorporation of [3H]mevalonate into immunoprecipitated Ras proteins in Met18b-2 cells. The experiment is classed as cell-based, Chinese hamster. The procedure:
In each experiment, aliquots of the Triton X-100 fraction (300 μg protein, prepared as described above) were incubated with 1 μg anti-Ras monoclonal antibody (Oncogene Sciences, Inc.) overnight at 4° C. on a rotating platform. Immune complexes were precipitated by addition of 25 μl Protein A-agarose suspension that had been pre-coated with goat anti-rat IgG (Oncogene Sciences, Inc.) according to the manufacturer's instructions. After a 30 min incubation at 4° C., the agarose beads were pelleted by centrifugation and washed 5 times with 1 ml each of wash solution (50 mM Tris-HCl, 50 mM NaCl, 0.5% (w/v) deoxycholate, 0.5% (v/v) Nonidet P-40, and 0.1% (w/v) SDS at pH 7.5). 75 μl of 1X SDS sample buffer was added and each sample heated for 5 min at 95° C. before electrophoresis as above.

In experiment [4] the test system is CALU-3 cells. As to the kind of experiment: Growth inhibition of human tumor line CALU-3. The experiment is classed as cell-based. Conditions: CALU-3, lung, ras transformed, read-out: % growth inhib. The procedure: as §1, §2

For the compound `CSCC[C@H](NC(=O)CN1C(=O)C(N(C)C(=O)[C@@H](N)CS)N=C(c2ccccc2)c2ccccc21)C(=O)O` (single isomer, unassigned) [27B], in experiment [1], the “labeling of farnesylated lamins (F-NL)” value is reported as “reduced moderately the labeling of the farnesylated lamins”.
In the case of `COC(=O)[C@H](CCSC)NC(=O)CN1C(=O)C(N(C)C(=O)[C@@H](N)CS)N=C(c2ccccc2)c2ccccc21` (single isomer, unassigned) [37B], the inhibition at 25 µM worked out at 0% in experiment [2] and 52% in experiment [4]. In experiment [3] (50 μM, FIG. 5, lanes 7-9), the “incorporation of [3H]mevalonate into immunoprecipitated ras proteins” value was “abolished incorporation of [3H] mevalonate into immunoprecipitated ras proteins”. In experiment [3] (Cricetulus griseus, FIG. 5, read-out: concentration at which inhibition of incorporation into ras proteins was readily detectable), the minimal effective concentration came to 10 µM.
